Values joined by “and” are separate entries in the source; they are usually repeats but may differ in a detail not shown here. Identical values can stand only once. “Also recorded” adds a separate entry of the source. Like-named read-outs stand apart in the source and are kept apart here.
Columns and labels:
[1] = Skin permeation study, Franz diffusion cell; assay type: in vitro ADME, porcine; conditions: for Cumulative amount at 8th hour: 1% w/v in deionized water; for Cumulative amount at 8th hour / Permeated through skin into receptor / Recovered in donor compartment / Recovered in skin / Recovered in skin outside diffusion area / Recovered in skin swabs / Recovered on parafilm and in washes / Cumulative amount comparison of PPD vs derivatives (times less than PPD): 8 h; for Permeated through skin into receptor / Recovered in donor compartment / Recovered in skin / Recovered in skin outside diffusion area / Recovered in skin swabs / Recovered on parafilm and in washes: mass balance; for recovery at 8 h, 1 % w/v: pig, end of 8 h, read-out: Total recovery (mean percentage parent compound recovery)
Procedure: In each Franz cell, a piece of pig ear skin prepared to a thickness of […] was clamped securely. 5 mL of PBS solution was added to the receiver compartment which was purged of air bubbles to ensure maximal contact of the skin piece with the solution. Donor solution was prepared by dissolving N1-N13 in deionized water at 1% w/v, and 900 μL was added to the donor compartment. The study was conducted for 8 h, and aliquots of 200 μL were removed from the receiver solution and topped up with fresh PBS at each timepoint of 15-minutes intervals for the first hour and every hour after that.
For mass balance, at the end of 8 h, skin pieces and swabs of the top and bottom surface of the skin were collected and stored in ACN for N1-N13 extraction. Donor solution and receiver solution were also collected.
The aliquot samples collected were subjected to 2-step extraction using 750 μL of dichloromethane (DCM). […] The solvent was dried using the TurboVap, and then reconstituted with 198 μL of 0.1% formic acid in 50% methanol in water and spiked with 2 μL of ANP (internal standard). The processed aliquot samples and mass balance samples were then sent for analysis using LC-MS/MS. The compounds' steady state fluxes and permeability coefficients were then calculated by fitting the solution to Fick's […] of diffusion at the steady state (linear part) of each experimental cumulative amount curve.

[2] = tested on: THP-1 cells; assay: h-CLAT assay on THP-1 cells: markers against OECD cut-off, prediction, cell viability; assay type: cell-based, human; conditions: for CD54 and CD86 marker expression against OECD cut-off: 8 doses based on CV75, 24 h
Procedure: The assay was conducted as per the literature (Toxicol In Vitro, 2006, 20, 767-73). THP-1 cells were cultured in 24-well plates (1×10^6 cells/1 mL/well) with various concentrations of each chemical (N1-N13), +ve control (DNCB), −ve control for 24 h.
THP-1 cells were cultured in 24-well plates (1×10^6 cells/mL/well) and treated with recommended concentrations of each chemical (N1-N13), positive control (DNCB) or negative control (SLS) for 24 h. THP-1 cells were cultured and treated with 8 doses of N1-N13 based on the CV75 namely, 1.2×CV75, 1×CV75, 1/1.2×CV75, 1/1.2^2×CV75, 1/1.23×CV75, 1/1.24×CV75, 1/1.2^5×CV75 and 1/1.2^6×CV75. After 24 h, cells were transferred to 1.5 mL of microtubes and centrifuged at 450 g, 5 min, 4° C. Supernatant was discarded and cells were washed with 1 mL of FACS buffer (PBS+FBS+HEPES). The cells were centrifuged at 450 g, 5 min, 4° C. 50 μL of Fc block (0.01% of Globlins Cohn fraction II, III) was added and incubated for 10 min at 4° C. The cells were stained with 20 μL APC CD54 (Mouse IgG1, K, BD Biosciences, San Diego, CA, USA), 20 μL FITC CD86 (Mouse IgG1, K, BD Biosciences, San Diego, CA, USA) or their respective isotype controls and incubated for 15 min at room temperature in dark. After incubation, the antibodies were diluted with 200 μl FACS buffer. The cells were washed with 1 mL FACS buffer twice. Further, 200 μL Propidium iodide (PI, 0.625 μg/mL) prepared in FACS buffer was added before the flow cytometry analysis. Flow cytometric analysis was performed with BD LSR Fortessa™ (Becton Dickinson, San Jose, CA, USA) In total, 10,000 living cells were analysed, and data were processed using Flowjo software (v10.6, Ashland, OR, USA). The test concentration providing a cell viability of 75% (CV75) was derived from the dose response curve and was calculated by log-linear interpolation.
Geometric mean fluorescence intensity (MFI) was measured for CD54^+ and CD86^+ cells separately and percentage relative fluorescence intensity (% RFI), reflective of CD86 and CD54 relative expression was calculated as described below. RFI was not calculated if cell viability fell below 50%.
All chemicals were tested in three independent experiments. If in two of three independent experiments at any dose exceeded 150% RFI for CD86, or 200% RFI for CD54, the chemicals could be identified as a sensitizer. Otherwise it is identified as a non-sensitizer.

[3] = tested on: IL-1α; assay: IL-1α release assay (ELISA) in THP-1 cells; assay type: cell-based, human; conditions: 24 h; for release of IL-1α: CV75 dose
Procedure: (§1) CV75 values (concentration showing 75% of THP-1 cell survival) were determined as per the procedure described above in section A of this method. The IL-8 and IL-1α release assay was performed as described in Toxicol In Vitro. 2003, 17(3), 311-321. A Chemokine immunosorbent assay Bio-legend ELISA Max kit was used to quantify the levels of available IL-8 and IL-1α protein. The supernatant media of untreated THP-1 cells was treated with standards, test samples N1-N13 and DMSO in 96 well plate and then was recovered after 24 h of culture. IL-8 and IL-1α was measured by ELISA in 96-well microtiter plates according to the manufacturer protocol (Biolegend, ELISA MAX™, Singapore).

[4] = tested on: IL-8; assay: IL-8 release assay (ELISA) in THP-1 cells; assay type: cell-based, human; conditions: CV75 dose, 24 h
Procedure: as §1

Structure (SMILES)	Cumulative amount at 8th hour [1]	Permeated through skin into receptor [1]	Recovered in donor compartment [1]	Recovered in skin [1]	Recovered in skin outside diffusion area [1]	Recovered in skin swabs [1]	Recovered on parafilm and in washes [1]	recovery at 8 h, 1 % w/v [1]	CD54 and CD86 marker expression against OECD cut-off [2]	Cumulative amount comparison of PPD vs derivatives (times less than PPD) [1]	marker induction, times lower than DNCB [2]	IL-1α release, times lower than PPD [3]	release of IL-1α [3]	release of IL-8 [4]	marker induction, times lower than DNCB ([2]; human, 24 h)
COC(COc1cc(N)ccc1N)OC [Compound N1, 2-(2,2-dimethoxyethoxy)benzene-1,4-diamine]	0.0073 μg/cm^2	<0.001 % of applied compound dose	96.7 % of applied compound dose	0.05 % of applied compound dose	0.0015 % of applied compound dose	0.04 % of applied compound dose	0.003 % of applied compound dose	96 ± 1.26%	did not express the markers at any tested dose level	–	–	–	–	–	–
COCOc1cc(N)ccc1N [Compound N2, 2-(methoxymethoxy)benzene-1,4-diamine]	–	<0.001 % of applied compound dose	98.2 % of applied compound dose	0.04 % of applied compound dose	0.0024 % of applied compound dose	0.05 % of applied compound dose	0.004 % of applied compound dose	98 ± 1.33%	–	453.7	3	–	–	–	–
CCOCOc1cc(N)ccc1N [Compound N3, 2-(ethoxymethoxy)benzene-1,4-diamine]	0.0088 μg/cm^2 and 0.00875 μg/cm^2	<0.001 % of applied compound dose	97.2 % of applied compound dose	0.01 % of applied compound dose	0.004 % of applied compound dose	0.04 % of applied compound dose	0.005 % of applied compound dose	97 ± 1.05%	–	–	3	–	–	–	–
Nc1ccc(N)c(OCC2CO2)c1 (centres unmarked) [Compound N4, 2-(oxiran-2-ylmethoxy)benzene-1,4-diamine]	0.0104 μg/cm^2	<0.001 % of applied compound dose	98.9 % of applied compound dose	0.02 % of applied compound dose	0.005 % of applied compound dose	0.03 % of applied compound dose	0.008 % of applied compound dose	99 ± 1.15%	did not express the markers at any tested dose level	–	–	7-8	slight release	–	–
COCCOCCOc1cc(N)ccc1N [Compound N5, 2-[2-(2-methoxyethoxy)ethoxy]benzene-1,4-diamine]	0.0065 μg/cm^2 and 0.00654 μg/cm^2	<0.001 % of applied compound dose	95.3 % of applied compound dose	0.04 % of applied compound dose	0.0045 % of applied compound dose	0.06 % of applied compound dose	0.009 % of applied compound dose	95 ± 1.42%	failed to induce marker expression above the recommended % RFI cut-off	825.0	–	–	slight elevation; also recorded: marginal release	slight elevation; also recorded: marginal release	–
N#CCOc1cc(N)ccc1N [Compound N6, 2-(2,5-diaminophenoxy)acetonitrile]	0.0145 μg/cm^2	<0.001 % of applied compound dose	99.1 % of applied compound dose	0.01 % of applied compound dose	0.006 % of applied compound dose	0.04 % of applied compound dose	0.002 % of applied compound dose	–	–	–	–	–	did not release significant amounts	did not release significant amounts	3
Nc1ccc(N)c(OCOCO)c1 [Compound N8, ((2,5-diaminophenoxy)methoxy)methanol]	0.00843 μg/cm^2	<0.001 % of applied compound dose	95.0 % of applied compound dose	0.06 % of applied compound dose	0.0018 % of applied compound dose	0.02 % of applied compound dose	0.004 % of applied compound dose	95.1 ± 1.3%	failed to induce marker expression above the recommended % RFI cut-off	640	–	–	–	–	–
Nc1ccc(N)c(OCCO)c1 [Compound N9, 2-(2,5-diaminophenoxy)ethan-1-ol]	–	<0.001 % of applied compound dose	94.5 % of applied compound dose	0.05 % of applied compound dose	0.0022 % of applied compound dose	0.03 % of applied compound dose	0.003 % of applied compound dose	94.6 ± 1.5%	failed to induce marker expression above the recommended % RFI cut-off	445	–	–	–	–	–
CC(O)COc1cc(N)ccc1N (centres unmarked) [Compound N10, 1-(2,5-diaminophenoxy)propan-2-ol]	0.008 μg/cm^2	<0.001 % of applied compound dose	95.0 % of applied compound dose	0.04 % of applied compound dose	0.003 % of applied compound dose	0.05 % of applied compound dose	0.006 % of applied compound dose	95.1 ± 1.4%	did not express the markers at any tested dose level	633	–	–	–	–	–

Reference: patent US20240197596A1, “COMPOUNDS USEFUL AS HAIR DYES” (National University of Singapore, priority 2021, published 2024)
